According to ChEMBL document CHEMBL2406964, “Caffeic acid phenethyl ester inhibits alpha-melanocyte stimulating hormone-induced melanin synthesis through suppressing transactivation activity of microphthalmia-associated transcription factor” (J Nat Prod, 2013):
Calls of active or inactive are those of the source. The calls are words filed in the database; no cut-off is given here.

What was measured:
B16-F10 [1] = test: Antimelanogenic activity in mouse B16F10 cells assessed as inhibition of alpha-MSH-induced melanin production at 1 to 2 uM after 72 hrs by spectrophotometry; type: functional, cell-based
[2] = biological target: T1, Microphthalmia-associated transcription factor (Mus musculus) (UniProt Q08874); test: Inhibition of MITF binding to M-box region of TRP-2 promoter in alpha-MSH-induced mouse B16F10 cells at 1 uM after 24 hrs by Chromatin immunoprecipitation assay; type: cell-based; settings: B16-F10
T1 sequence (whole entry): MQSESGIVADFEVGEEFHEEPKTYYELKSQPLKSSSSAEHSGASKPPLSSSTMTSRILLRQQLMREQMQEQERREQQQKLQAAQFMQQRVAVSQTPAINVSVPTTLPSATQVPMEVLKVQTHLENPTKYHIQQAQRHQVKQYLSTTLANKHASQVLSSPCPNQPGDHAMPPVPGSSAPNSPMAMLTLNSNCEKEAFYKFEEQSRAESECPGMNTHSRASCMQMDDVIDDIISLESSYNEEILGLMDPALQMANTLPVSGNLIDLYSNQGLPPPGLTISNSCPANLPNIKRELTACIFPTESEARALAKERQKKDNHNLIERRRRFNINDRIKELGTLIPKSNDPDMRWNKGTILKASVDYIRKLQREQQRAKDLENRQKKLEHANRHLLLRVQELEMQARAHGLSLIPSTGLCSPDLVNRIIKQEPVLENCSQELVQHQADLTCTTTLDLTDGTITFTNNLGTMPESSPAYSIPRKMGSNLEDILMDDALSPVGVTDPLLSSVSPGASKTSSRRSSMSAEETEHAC

[3] = biological target: T1, Microphthalmia-associated transcription factor (Mus musculus); test: Inhibition of MITF binding to M-box region of TRP-1 promoter in alpha-MSH-induced mouse B16F10 cells at 1 uM after 24 hrs by Chromatin immunoprecipitation assay; type: cell-based; settings: B16-F10
[4] = biological target: T1, Microphthalmia-associated transcription factor (Mus musculus); test: Inhibition of MITF binding to M-box region of tyrosinase promoter in alpha-MSH-induced mouse B16F10 cells at 1 uM after 24 hrs by Chromatin immunoprecipitation assay; type: cell-based; settings: B16-F10
[5] = biological target: T1, Microphthalmia-associated transcription factor (Mus musculus); test: Inhibition of MITF in mouse B16F10 cells assessed as inhibition of alpha-MSH-induced tyrosinase promoter activity after 24 hrs by luciferase reporter gene assay; type: cell-based; settings: B16-F10
[6] = biological target: Glycogen synthase kinase-3 beta (Mus musculus) (UniProt Q9WV60); test: Inhibition of GSK-3beta phosphorylation in alpha-MSH-induced mouse B16F10 cells at 1 uM after 30 mins to 2 hrs by Western blotting analysis; type: cell-based; settings: B16-F10
Glycogen synthase kinase-3 beta (Mus musculus), sequence (Q9WV60 whole entry, looked up): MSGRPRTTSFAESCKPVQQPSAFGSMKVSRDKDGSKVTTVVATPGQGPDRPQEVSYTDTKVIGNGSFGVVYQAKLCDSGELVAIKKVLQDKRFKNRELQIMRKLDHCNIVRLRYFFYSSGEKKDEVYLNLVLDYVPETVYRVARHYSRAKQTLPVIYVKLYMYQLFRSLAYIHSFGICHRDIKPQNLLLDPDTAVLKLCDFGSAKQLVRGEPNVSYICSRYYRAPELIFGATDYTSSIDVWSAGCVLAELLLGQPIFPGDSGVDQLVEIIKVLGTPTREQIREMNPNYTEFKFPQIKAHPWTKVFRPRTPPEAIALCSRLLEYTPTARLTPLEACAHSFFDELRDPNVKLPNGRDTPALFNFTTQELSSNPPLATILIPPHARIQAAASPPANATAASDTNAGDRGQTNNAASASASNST

[7] = biological target: RAC-alpha serine/threonine-protein kinase (Mus musculus) (UniProt P31750); test: Inhibition of Akt phosphorylation in alpha-MSH-induced mouse B16F10 cells at 1 uM after 30 mins to 2 hrs by Western blotting analysis; type: cell-based; settings: B16-F10
RAC-alpha serine/threonine-protein kinase (Mus musculus), sequence (P31750 whole entry): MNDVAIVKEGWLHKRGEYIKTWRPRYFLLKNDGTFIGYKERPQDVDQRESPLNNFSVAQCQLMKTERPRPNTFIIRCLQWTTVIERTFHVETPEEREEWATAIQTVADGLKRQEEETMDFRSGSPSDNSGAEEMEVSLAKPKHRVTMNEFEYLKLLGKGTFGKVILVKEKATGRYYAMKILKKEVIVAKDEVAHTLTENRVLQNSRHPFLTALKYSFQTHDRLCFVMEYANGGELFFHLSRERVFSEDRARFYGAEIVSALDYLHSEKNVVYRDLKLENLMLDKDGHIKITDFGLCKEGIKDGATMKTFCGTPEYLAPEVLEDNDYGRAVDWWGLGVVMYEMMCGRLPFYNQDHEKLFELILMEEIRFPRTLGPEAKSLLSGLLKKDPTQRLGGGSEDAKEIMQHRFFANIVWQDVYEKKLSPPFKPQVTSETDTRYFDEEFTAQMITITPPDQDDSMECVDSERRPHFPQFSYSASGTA

B16-F10 [8] = test: Inhibition of CREB phosphorylation in alpha-MSH-induced mouse B16F10 cells at 1 uM after 30 mins to 2 hrs by Western blotting analysis; type: cell-based
B16-F10 [9] = test: Antimelanogenic activity in mouse B16F10 cells assessed as inhibition of alpha-MSH-induced MITF nuclear translocation at 1 uM after 30 mins to 2 hrs by Western blotting analysis; type: functional, cell-based
B16-F10 [10] = test: Antimelanogenic activity in mouse B16F10 cells assessed as inhibition of alpha-MSH-induced MITF protein expression at 1 uM after 30 mins to 2 hrs by Western blotting analysis; type: functional, cell-based
[11] = biological target: T1, Microphthalmia-associated transcription factor (Mus musculus); test: Inhibition of MITF in mouse B16F10 cells assessed as inhibition of alpha-MSH-induced TRP2 protein expression after 48 hrs by Western blotting analysis; type: cell-based; settings: B16-F10
[12] = biological target: T1, Microphthalmia-associated transcription factor (Mus musculus); test: Inhibition of MITF in mouse B16F10 cells assessed as inhibition of alpha-MSH-induced TRP1 protein expression after 48 hrs by Western blotting analysis; type: cell-based; settings: B16-F10
[13] = biological target: T1, Microphthalmia-associated transcription factor (Mus musculus); test: Inhibition of MITF in mouse B16F10 cells assessed as inhibition of alpha-MSH-induced tyrosinase protein expression after 48 hrs by Western blotting analysis; type: cell-based; settings: B16-F10
[14] = biological target: T1, Microphthalmia-associated transcription factor (Mus musculus); test: Inhibition of MITF in mouse B16F10 cells assessed as inhibition of alpha-MSH-induced TRP2 mRNA expression after 48 hrs by RT-PCR analysis; type: cell-based; settings: B16-F10
[15] = biological target: T1, Microphthalmia-associated transcription factor (Mus musculus); test: Inhibition of MITF in mouse B16F10 cells assessed as inhibition of alpha-MSH-induced TRP1 mRNA expression after 48 hrs by RT-PCR analysis; type: cell-based; settings: B16-F10
B16-F10 [16] = test: Antimelanogenic activity in mouse B16F10 cells assessed as inhibition of alpha-MSH-induced MITF mRNA expression at 1 uM after 30 mins to 2 hrs by RT-PCR analysis; type: functional, cell-based
[17] = biological target: T1, Microphthalmia-associated transcription factor (Mus musculus); test: Inhibition of MITF in mouse B16F10 cells assessed as inhibition of alpha-MSH-induced tyrosinase mRNA expression after 48 hrs by RT-PCR analysis; type: cell-based; settings: B16-F10
[18] = biological target: T2, Tyrosinase (Mus musculus) (UniProt P11344); test: Inhibition of tyrosinase in alpha-MSH-treated mouse B16F10 cells assessed as reduction in L-DOPA oxidase activity at 0.5 to 2 uM after 72 hrs; type: cell-based; settings: B16-F10
T2 sequence (whole entry): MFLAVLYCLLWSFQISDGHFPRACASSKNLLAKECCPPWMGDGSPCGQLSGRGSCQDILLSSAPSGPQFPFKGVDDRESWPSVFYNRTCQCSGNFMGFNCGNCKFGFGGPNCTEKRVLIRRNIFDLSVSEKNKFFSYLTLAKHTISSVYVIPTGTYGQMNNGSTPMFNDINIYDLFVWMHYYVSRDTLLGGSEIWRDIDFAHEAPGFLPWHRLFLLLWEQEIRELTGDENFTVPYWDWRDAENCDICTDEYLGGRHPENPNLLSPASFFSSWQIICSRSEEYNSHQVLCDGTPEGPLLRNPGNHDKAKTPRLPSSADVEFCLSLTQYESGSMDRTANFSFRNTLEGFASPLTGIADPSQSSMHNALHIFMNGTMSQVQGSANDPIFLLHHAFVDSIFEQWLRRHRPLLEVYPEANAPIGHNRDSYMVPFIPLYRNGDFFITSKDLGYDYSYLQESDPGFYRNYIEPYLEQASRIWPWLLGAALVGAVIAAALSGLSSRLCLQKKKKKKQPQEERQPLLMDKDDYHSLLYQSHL

[19] = biological target: T2, Tyrosinase (Mus musculus); test: Inhibition of tyrosinase in alpha-MSH-treated mouse B16F10 cells up to 100 uM after 72 hrs by L-DOPA oxidase assay; type: cell-based; settings: B16-F10
B16-F10 [20] = test: Antimelanogenic activity in mouse B16F10 cells assessed as inhibition of alpha-MSH-induced secreted melanin production after 72 hrs by spectrophotometry; type: functional, cell-based
B16-F10 [21] = test: Antimelanogenic activity in mouse B16F10 cells assessed as inhibition of alpha-MSH-induced intracellular melanin production after 72 hrs by spectrophotometry; type: functional, cell-based
B16-F10 [22] = test: Cytotoxicity against mouse B16F10 cells up to 2 uM after 72 hrs by MTT assay; type: cell-based; settings: b16-f10, 72 h

In the case of O=C(/C=C/c1ccccc1)OCCc1ccccc1, the inhibition (B16-F10 [1]) is reported as “inactive”.

OCCc1ccccc1 was tested, and the inhibition (B16-F10 [1]) was “inactive”.

For O=C(/C=C/c1ccc(O)c(O)c1)OCCc1ccccc1 [CAFFEIC ACID PHENETHYL ESTER], the inhibition [2] was “Active”, the inhibition [3] was “Active” and the inhibition [4] was “Active”. The inhibition [5] was “Dose-dependent effect”, the inhibition [6] was “inactive” and the inhibition [7] was “inactive”. For the same compound, the inhibition (B16-F10 [8]) was “inactive”, the inhibition (B16-F10 [9]) was “inactive” and the inhibition (B16-F10 [10]) was “inactive”. The inhibition [11] was “Dose-dependent effect”, the inhibition [12] was “Dose-dependent effect” and the inhibition [13] was “Dose-dependent effect”. The inhibition [14] was “Dose-dependent effect”, the inhibition [15] was “Dose-dependent effect” and the inhibition (B16-F10 [16]) was “inactive”. For the same compound, the inhibition [17] was “Dose-dependent effect”, the inhibition [18] was “Active” and the inhibition [19] was “inactive”. The inhibition (B16-F10 [20]) was “Dose-dependent effect”, the inhibition (B16-F10 [21]) was “Dose-dependent effect” and the Activity (B16-F10 [22]) was “Non-toxic”.

For O=C(O)/C=C/c1ccc(O)c(O)c1, the inhibition (B16-F10 [1]) was “inactive”.
